Experimental findings from article PMC6259456, “Inhibitory Effects of Phylligenin and Quebrachitol Isolated from Mitrephora vulpina on Platelet Activating Factor Receptor Binding and Platelet Aggregation” (Molecules, 2010) are described below.

For this assay, the target named is T1, platelet activating factor (PAF) receptor (Oryctolagus cuniculus, UniProt G1TEI7).
T1 construct: gene PTAFR; native receptor on washed rabbit platelets
In words: 3H-PAF radioligand displacement on washed rabbit platelets. The format is cell-based. For orientation: Displacement assays read how much labelled ligand stays bound in the presence of the test substance.

Read-outs that look alike come from different tables or passages of the source.

T1 sequence (G1TEI7 1-342): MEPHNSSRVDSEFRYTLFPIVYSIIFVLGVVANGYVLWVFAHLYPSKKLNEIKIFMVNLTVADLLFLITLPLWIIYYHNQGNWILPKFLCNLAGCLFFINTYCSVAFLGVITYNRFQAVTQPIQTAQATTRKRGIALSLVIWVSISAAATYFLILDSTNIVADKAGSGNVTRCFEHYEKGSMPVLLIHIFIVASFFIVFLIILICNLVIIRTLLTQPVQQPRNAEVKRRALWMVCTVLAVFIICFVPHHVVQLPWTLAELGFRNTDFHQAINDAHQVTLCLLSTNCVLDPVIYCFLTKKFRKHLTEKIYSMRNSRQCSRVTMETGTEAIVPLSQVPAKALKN

The term IC50 denotes the midpoint of a concentration-inhibition curve. `C[C@@H]1CC[C@H]2C(C)(C)[C@H]3C[C@@]12CC[C@@]3(C)O` [cedrol, reference compound]: the IC50 (read-out: IC50) was 10.6 µM. Molecule `COc1cc([C@H]2OC[C@H]3[C@@H]2CO[C@H]3c2ccc(OC)c(OC)c2)ccc1O` [phylligenin] gave an IC50 of 13.1 µM.

On to `CO[C@H]1[C@H](O)[C@@H](O)[C@H](O)[C@H](O)[C@H]1O` [quebrachitol, 2-O-methyl-L-chiro-inositol], for which the IC50 (read-out: IC50) came out at 42.2 µM.
